These results are taken from ChEMBL document CHEMBL1201862, “PubChem BioAssay data set” (2004).

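Cells were grown in 96-well plates and exposed to each compound for 48 hours at five concentrations; endpoints were interpolated linearly between bracketing concentrations, or set to the highest concentration if not reached. GI50 is the concentration that inhibits growth by half.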 Activity calls are given as the source filed them. No stated cut-off is given here; in the data, active = GI50 up to about 1.1 µM and inactive = higher. Bounds are passed on as bounds.

Some test systems named below: CCRF-CEM; COLO 205; DMS-273; EKVX; HCC 2998; HCT-116; HOP-92; KM-20L2; LXFL 529; NCI-H23; RXF 393; SF-268; SF-295; SN12C; SNB-75; SNB-78; TK-10; UO-31; UACC-62.
Holding throughout (assay): NCI tumour cell line growth inhibition, 48 h

For the compound `COc1cc(CC(=O)c2cc3c(cc2-c2ccccc2)OCO3)cc(OC)c1OC`, the GI50 is 13 µM (inactive) in the experiment on CCRF-CEM; 56.4 µM (inactive) in the experiment with COLO 205; 40.2 µM (inactive) with DMS-273; 10.8 µM (inactive) in the experiment on EKVX; > 100 µM (inactive) in the experiment with HCC 2998; 43.9 µM (inactive) in the experiment on HCT-116. The GI50 in the experiment on HOP-92 is < 0.01 µM (active); in the experiment on KM-20L2, 96.6 µM (inactive); in the experiment on LXFL 529, 9.38 µM (inactive); in the experiment with NCI-H23, 22.9 µM (inactive); in the experiment with RXF 393, 30.2 µM (inactive); in the experiment on SF-268, 75.7 µM (inactive). The GI50 is 34.5 µM (inactive) with SF-295; 68.7 µM (inactive) in the experiment on SN12C; 1.18 µM (inactive) in the experiment with SNB-75; 25.8 µM (inactive) in the experiment on SNB-78; 32.9 µM (inactive) in the experiment on TK-10; 19.5 µM (inactive) in the experiment with UO-31.

Take `CC(C)CC1CC2C(=O)N(c3ccccc3)C(=O)C2c2[nH]c3ccccc3c21` (configuration not stated): the GI50 in the experiment with CCRF-CEM is 16 µM (inactive); with COLO 205, 31 µM (inactive); in the experiment on DMS-273, 26.9 µM (inactive); with EKVX, > 52.2 µM (inactive); in the experiment on HCC 2998, 17.4 µM (inactive); in the experiment with HCT-116, 11.4 µM (inactive). The GI50 is 18.6 µM (inactive) with HOP-92; > 100 µM (inactive) with KM-20L2; 60 µM (inactive) in the experiment on LXFL 529; > 45.1 µM (inactive) in the experiment with NCI-H23; 14.6 µM (inactive) in the experiment on RXF 393; > 56.2 µM (inactive) with SF-268. Further, the GI50 in the experiment with SF-295 was 20.7 µM (inactive); in the experiment with SN12C it was 13.9 µM (inactive); with SNB-75 it was 13.1 µM (inactive); in the experiment on SNB-78 it was > 74.3 µM (inactive); in the experiment with UACC-62 it was 12.4 µM (inactive); in the experiment on UO-31 it was 26.4 µM (inactive).

As to `Cc1cc2c(=O)cc(-c3ccc(O)cc3)oc2c(C(=O)O)c1C`, the GI50 in the experiment on CCRF-CEM, with COLO 205, in the experiment on DMS-273, in the experiment with EKVX, in the experiment on HCC 2998 and in the experiment on HCT-116 was > 100 µM (inactive) throughout. For the same compound, the GI50 with HOP-92, in the experiment on KM-20L2, in the experiment on LXFL 529, with NCI-H23, with SF-295 and in the experiment with SN12C was > 100 µM (inactive) in each case. Besides, the GI50 with SNB-75, with SNB-78, with TK-10, with UACC-62 and in the experiment with UO-31 was > 100 µM (inactive) in each case.

Consider `Nc1nc2c3nc(Nc4ccccc4)sc3nc(=S)n2c2sc(Nc3ccccc3)nc12`, for which the GI50 with COLO 205 is > 100 µM (inactive); in the experiment with DMS-273, > 100 µM (inactive); in the experiment with EKVX, > 100 µM (inactive); in the experiment on HCC 2998 it was 22.2 µM (inactive); with HCT-116, > 100 µM (inactive); in the experiment with HOP-92, 4.66 µM (inactive). In addition, the GI50 in the experiment with KM-20L2 is > 100 µM (inactive); in the experiment with LXFL 529, 4.18 µM (inactive); in the experiment on NCI-H23, > 100 µM (inactive); in the experiment with RXF 393, > 100 µM (inactive); in the experiment on SF-268, 12.1 µM (inactive); with SF-295, > 100 µM (inactive). Further, the GI50 in the experiment with SN12C was 65.5 µM (inactive); with SNB-75, 50.8 µM (inactive); in the experiment with SNB-78, 22.5 µM (inactive); with UACC-62 it was 46.7 µM (inactive); with UO-31, > 100 µM (inactive).

On to `Cc1c(C(=O)/C=C/C=C/c2ccccc2)[n+]([O-])c2ccccc2[n+]1[O-]`, for which the GI50 in the experiment with CCRF-CEM is 34 µM (inactive); in the experiment with COLO 205 it was 35 µM (inactive); with DMS-273, 32.2 µM (inactive); in the experiment with EKVX, 51.2 µM (inactive); in the experiment with HCC 2998, 18.9 µM (inactive); with HOP-92 it was 18 µM (inactive). The GI50 was 38 µM (inactive) with KM-20L2; 18 µM (inactive) with LXFL 529; 17.5 µM (inactive) with NCI-H23; 29.5 µM (inactive) with SF-268; 29.2 µM (inactive) in the experiment with SF-295; 23.5 µM (inactive) in the experiment on SN12C. Also, the GI50 in the experiment on SNB-75 was 34.2 µM (inactive); in the experiment on SNB-78, 42 µM (inactive); in the experiment with TK-10, 50.8 µM (inactive); in the experiment with UACC-62 it was 16 µM (inactive); in the experiment with UO-31 it was 38.4 µM (inactive).

For the compound `CCCCC(C(=O)C(=O)Nc1ccccc1CC)C(=O)C(C)C` (configuration not stated), the GI50 with CCRF-CEM, in the experiment on COLO 205, in the experiment with DMS-273, in the experiment with EKVX, with HCC 2998 and in the experiment on HCT-116 was > 100 µM (inactive) in each case. Besides, the GI50 in the experiment with HOP-92, with KM-20L2, with LXFL 529, with NCI-H23, with SF-268 and in the experiment on SF-295 was > 100 µM (inactive) throughout. The GI50 with SN12C, in the experiment with SNB-78, in the experiment with TK-10, in the experiment on UACC-62 and in the experiment with UO-31 was > 100 µM (inactive) in each case.

As for `Cc1ccc2c(c1)-c1c3c(nn1C)-c1ccccc1SC3O2` (configuration not stated), the GI50 was 41 µM (inactive) in the experiment on CCRF-CEM; 75.5 µM (inactive) in the experiment on COLO 205; 55.5 µM (inactive) in the experiment on DMS-273; 44.5 µM (inactive) with EKVX; 34 µM (inactive) with HCC 2998; 33.7 µM (inactive) in the experiment on HCT-116. The GI50 with HOP-92 was 27 µM (inactive); with KM-20L2, 87.7 µM (inactive); with LXFL 529, 30.7 µM (inactive); with NCI-H23 it was > 100 µM (inactive); in the experiment with RXF 393 it was > 100 µM (inactive); with SF-268, 55.6 µM (inactive). The GI50 is 83.8 µM (inactive) with SF-295; 55.8 µM (inactive) in the experiment with SNB-75; > 100 µM (inactive) in the experiment with SNB-78; > 100 µM (inactive) in the experiment with TK-10; 20.8 µM (inactive) with UO-31.

For `CC(C)(C)C1=CC(=C(P(=O)(O)O)P(=O)(O)O)C=C(C(C)(C)C)C1=O`, the GI50 in the experiment on CCRF-CEM, with DMS-273, in the experiment on EKVX, in the experiment on HCC 2998, in the experiment on HCT-116 and with HOP-92 was > 50 µM (inactive) each time. Also, the GI50 with KM-20L2, with LXFL 529, in the experiment on NCI-H23, in the experiment on SF-268, in the experiment with SF-295 and with SNB-75 was > 50 µM (inactive) throughout. The GI50 in the experiment with SNB-78, in the experiment on TK-10, in the experiment on UACC-62 and in the experiment on UO-31 was > 50 µM (inactive) each time.
